The series has as its system human three-dimensional cultured epidermis model. Description: Skin irritation of fatty acid alkali metal salts, OECD TG439 (Experimental Example 3). Conditions: 0.1 M fatty acid aqueous solution, 25 μL, 15 minutes exposure, N=3; ≤50% viability irritating. The series is classed as cell-based. As to the method:
The skin irritation of alkali metal salts of various fatty acids (potassium laurate, potassium myristate, potassium palmitate, and potassium oleate) was evaluated by the following method based on OECD Test Guideline TG439. […]

The text below walks through data of patent publication US20250290014A1, “DETERGENT COMPOSITION” (Saraya Co., Ltd., priority 2022, published 2025).

As for `CCCCCCCCCCCC(=O)[O-].[K+]` [lauric acid salt, potassium laurate], the “Skin irritation determination from cell viability (FIG. 3)” value was “irritating”.
